In US20260226067A1, “MODULATORS OF TRPML, THEIR COMPOSITIONS AND METHODS OF USE” (Caraway Therapuetics, Inc., priority 2023, published 2026):

Assays:
Assay type in all cases: cell-based
[1] = biological target: T1, Human TRPML2 (Homo sapiens, UniProt Q8IZK6); assay: Fluorescent TRPML2 assay (as for TRPML1); settings: as TRPML1 assay with TRPML2 subtype; read-out: Human TRPML 2 EC50
T1 construct: expressed in transfected cells
T1 sequence (Q8IZK6 1-566): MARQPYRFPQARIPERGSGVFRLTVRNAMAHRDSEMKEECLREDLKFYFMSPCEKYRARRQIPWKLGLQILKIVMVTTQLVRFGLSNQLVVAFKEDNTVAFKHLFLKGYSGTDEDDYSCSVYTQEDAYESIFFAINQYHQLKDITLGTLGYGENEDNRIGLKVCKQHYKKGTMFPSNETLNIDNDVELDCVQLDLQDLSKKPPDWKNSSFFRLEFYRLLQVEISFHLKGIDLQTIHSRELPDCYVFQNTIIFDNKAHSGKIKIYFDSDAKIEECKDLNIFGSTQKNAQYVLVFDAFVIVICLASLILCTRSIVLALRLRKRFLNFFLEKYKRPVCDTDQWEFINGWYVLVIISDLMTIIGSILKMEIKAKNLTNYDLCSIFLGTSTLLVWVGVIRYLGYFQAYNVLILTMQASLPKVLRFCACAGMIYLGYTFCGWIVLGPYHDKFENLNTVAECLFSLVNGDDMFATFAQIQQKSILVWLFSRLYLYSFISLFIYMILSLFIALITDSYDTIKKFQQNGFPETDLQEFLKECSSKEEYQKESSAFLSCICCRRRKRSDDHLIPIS
Procedure: (§1) HEK-293 Trex cells were stably transfected with a construct consisting of the human coding sequence for TRPML1 cloned into the tet-inducible plasmid pCDNA5 T/O. Mutations were introduced into the TRPML1 sequence to facilitate expression on the cell surface (Silvia Vergarajauregui, Rosa Puertollano Traffic. 2006 March; 7(3): 337-353). Briefly, the cells are cultured in 150 mm round tissue culture dishes containing 20 mL of media. The day before the assay the cells are rinsed with DPBS-Ca-Mg and then treated briefly with Trypsin-EDTA. The Trypsin-EDTA is diluted with growth media, and cells are counted. 38×10^6 cells are re-plated into 150 mm round tissue culture dishes in media containing 0.5 ug/mL doxycycline to induce expression of hTRPML1.
(§2) The day of the experiment cells are lifted from the plates as above and collected by centrifugation. The cells are then suspended in dye loading buffer consisting of Ringer's solution supplemented with 0.1% Pluronic Acid and 1 micromolar Fluo4-AM dye. Cells are loaded for ~60 minutes in the dark with occasional mixing. The cells are collected by centrifugation, the loading media aspirated, and the cells resuspended in 25 mL Ringer's solution and incubated ~60 minutes in the dark. The cells are again collected by centrifugation, rinsed in Ringer's Solution and resuspended to 0.2×10^6 cells/mL in modified Ringer's solution containing 10 mM calcium.
(§3) Compounds are dissolved to a concentration of 10 millimolar with DMSO. Compound plates are created by dispensing compounds into 384 well black wall clear bottom plates (Greiner 781091). Positive and negative controls are included on each plate. Typically, different amounts of each compound are tested ranging from 100 nanoMoles (20 micromolar final concentration) decreasing in half-log steps to 31 picoMoles (6 nanomolar final concentration). Each concentration is typically tested in triplicate.
(§4) 50 microliters of dye-loaded cells are dispensed into each well of the compound assay plate created above. The fluorescence in each well is then determined with an excitation wavelength of 480 nm and an emission wavelength of 540 nm using either a Molecular Devices SpectraMax multimode plate reader or a Hamamatsu FDSS/uCell plate imager.
(§5) The resulting fluorescence for each well is exported as an ascii file and loaded into our LIMS for analysis. The percent activity of each compound at each concentration is determined by comparison to the positive and negative control wells included in each plate.
(§6) Assays for TRPML2 and TRPML3 were performed as above for TRPML1, by substituting the appropriate TRPML2 or TRPML3 subtype for the TRPML1.
(§7) EC50 values were calculated using a non-linear regression of Prism. In the table, “A” indicates an EC50 of less than 100 nM, “B” indicates an EC50 range from 100 nM to 500 nM; “C” indicates an EC50 range from 500 nM to 2 μM; and “D” indicates an EC50 greater than 2 μM.

[2] = biological target: T2, Human TRPML3 (Homo sapiens, UniProt Q8TDD5); assay: Fluorescent TRPML3 assay (as for TRPML1); settings: as TRPML1 assay with TRPML3 subtype; read-out: Human TRPML 3 EC50
T2 construct: expressed in transfected cells
T2 sequence (Q8TDD5 1-553): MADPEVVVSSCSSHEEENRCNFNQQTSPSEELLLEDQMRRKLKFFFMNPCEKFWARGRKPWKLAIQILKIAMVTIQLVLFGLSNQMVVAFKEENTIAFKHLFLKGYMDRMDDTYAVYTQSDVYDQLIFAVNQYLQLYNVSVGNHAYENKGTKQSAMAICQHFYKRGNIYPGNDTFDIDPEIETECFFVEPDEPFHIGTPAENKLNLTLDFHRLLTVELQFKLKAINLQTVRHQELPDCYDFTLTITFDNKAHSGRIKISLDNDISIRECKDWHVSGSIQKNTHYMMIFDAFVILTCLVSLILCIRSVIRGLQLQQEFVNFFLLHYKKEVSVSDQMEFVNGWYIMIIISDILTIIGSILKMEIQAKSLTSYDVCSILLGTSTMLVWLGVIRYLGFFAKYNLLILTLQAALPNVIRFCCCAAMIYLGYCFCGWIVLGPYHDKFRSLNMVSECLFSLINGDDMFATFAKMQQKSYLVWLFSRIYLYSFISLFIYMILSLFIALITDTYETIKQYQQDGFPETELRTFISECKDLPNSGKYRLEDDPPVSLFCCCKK
Procedure: as §1, §2, §3, §4, §5, §6, §7

[3] = biological target: human TRPML1 (Homo sapiens, UniProt Q9GZU1); assay: Fluorescent TRPML1 assay (Fluo4-AM calcium fluorescence); settings: HEK-293 Trex cells expressing hTRPML1, Fluo4-AM fluorescence; read-out: Human TRPML 1 EC50
Chain of human TRPML1 (Q9GZU1 whole entry L15A/L16A/L577A/L578A, form open): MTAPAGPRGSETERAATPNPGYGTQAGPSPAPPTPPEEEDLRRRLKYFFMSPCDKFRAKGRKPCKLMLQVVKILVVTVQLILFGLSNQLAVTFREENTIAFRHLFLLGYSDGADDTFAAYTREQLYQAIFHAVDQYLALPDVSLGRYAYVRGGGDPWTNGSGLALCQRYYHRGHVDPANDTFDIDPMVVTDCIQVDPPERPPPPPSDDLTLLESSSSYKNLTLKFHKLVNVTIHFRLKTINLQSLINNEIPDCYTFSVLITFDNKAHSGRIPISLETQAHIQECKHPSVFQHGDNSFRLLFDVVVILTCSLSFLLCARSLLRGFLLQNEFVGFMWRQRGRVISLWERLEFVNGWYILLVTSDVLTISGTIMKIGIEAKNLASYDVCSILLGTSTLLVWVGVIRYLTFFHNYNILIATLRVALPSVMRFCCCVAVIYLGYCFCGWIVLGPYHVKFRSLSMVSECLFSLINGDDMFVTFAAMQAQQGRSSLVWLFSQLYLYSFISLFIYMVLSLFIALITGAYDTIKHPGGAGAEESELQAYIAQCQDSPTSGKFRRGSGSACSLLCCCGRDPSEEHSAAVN
Procedure: as §1, §2, §3, §4, §5, §7

Row | SMILES | EC50 [1] [nM] | EC50 [2] [nM] | EC50 [3] [nM]
1 | C[C@@H]1CN(c2ncnc3c2c(C2CC2)cn3-c2cccc(F)c2)[C@@H](C)CN1C(=O)c1ccccc1 [Compound 105, ((2R,5S)-4-(5-cyclopropyl-7-(3-fluorophenyl)-7H-pyrrolo[2,3-d]pyrimidin-4-yl)-2,5-dimethylpiperazin-1-yl)(phenyl)methanone] | > 2000 | 500 to 2000 | < 100
2 | C[C@@H]1CN(c2ncnc3c2c(C(F)(F)F)cn3-c2cccc(F)c2)[C@@H](C)CN1C(=O)c1ccccc1 [Compound 106, ((2R,5S)-4-(7-(3-fluorophenyl)-5-(trifluoromethyl)-7H-pyrrolo[2,3-d]pyrimidin-4-yl)-2,5-dimethylpiperazin-1-yl)(phenyl)methanone] | > 2000 | 500 to 2000 | < 100
3 | C[C@@H]1CN(c2ncnc3c2c(N2CCC2)cn3-c2cccc(F)c2)[C@@H](C)CN1C(=O)c1ccccc1 [Compound 108, ((2R,5S)-4-(5-(azetidin-1-yl)-7-(3-fluorophenyl)-7H-pyrrolo[2,3-d]pyrimidin-4-yl)-2,5-dimethylpiperazin-1-yl)(phenyl)methanone] | 500 to 2000 | 500 to 2000 | < 100
4 | C[C@@H]1CN(c2ncnc3c2c(C2CCC2)cn3-c2cccc(F)c2)[C@@H](C)CN1C(=O)c1ccccc1 [Compound 111, ((2R,5S)-4-(5-cyclobutyl-7-(3-fluorophenyl)-7H-pyrrolo[2,3-d]pyrimidin-4-yl)-2,5-dimethylpiperazin-1-yl)(phenyl)methanone] |  | 500 to 2000 | 100 to 500
5 | C[C@@H]1CN(c2ncnc3c2c(N2CCC2)cn3-c2cc(C#N)ccn2)[C@@H](C)CN1C(=O)c1ccccc1F [Compound 113, 2-(5-(azetidin-1-yl)-4-((2S,5R)-4-(2-fluorobenzoyl)-2,5-dimethylpiperazin-1-yl)-7H-pyrrolo[2,3-d]pyrimidin-7-yl)isonicotinonitrile] | 100 to 500 | 500 to 2000 | 100 to 500
6 | C[C@@H]1CN(c2ncnc3c2c(N2CCC2)cn3-c2cc(C#N)ccn2)[C@@H](C)CN1C(=O)c1cccc(F)c1 [Compound 114, 2-(5-(azetidin-1-yl)-4-((2S,5R)-4-(3-fluorobenzoyl)-2,5-dimethylpiperazin-1-yl)-7H-pyrrolo[2,3-d]pyrimidin-7-yl)isonicotinonitrile] | 100 to 500 | 100 to 500 | 100 to 500
7 | C[C@H]1CN(C(=O)c2ccccc2)CCN1c1ncnc2c1c(C(F)(F)F)cn2-c1cc(C#N)ccn1 [Compound 117, (S)-2-(4-(4-benzoyl-2-methylpiperazin-1-yl)-5-(trifluoromethyl)-7H-pyrrolo[2,3-d]pyrimidin-7-yl)isonicotinonitrile] |  | 500 to 2000 | 
8 | C[C@@H]1CN(c2ncnc3c2c(-c2ccccn2)cn3-c2cc(C#N)ccn2)[C@@H](C)CN1C(=O)c1ccccc1 [Compound 118, 2-(4-((2S,5R)-4-benzoyl-2,5-dimethylpiperazin-1-yl)-5-(pyridin-2-yl)-7H-pyrrolo[2,3-d]pyrimidin-7-yl)isonicotinonitrile] |  | 500 to 2000 | 100 to 500

Next, values leading:

Row | EC50 [1] [nM] | EC50 [2] [nM] | EC50 [3] [nM] | SMILES
9 | 100 to 500 | < 100 | < 100 | C[C@@H]1CN(c2ncnc3c2c(N2CCC2)cn3-c2cc(C#N)ccn2)CCN1C(=O)c1ccccc1 [Compound 101, (R)-2-(5-(azetidin-1-yl)-4-(4-benzoyl-3-methylpiperazin-1-yl)-7H-pyrrolo[2,3-d]pyrimidin-7-yl)isonicotinonitrile]
10 | > 2000 | 100 to 500 | < 100 | C[C@@H]1CN(c2ncnc3c2c(C2CC2)cn3-c2cc(C#N)ccn2)[C@@H](C)CN1C(=O)c1ccccc1 [Compound 102, 2-(4-((2S,5R)-4-benzoyl-2,5-dimethylpiperazin-1-yl)-5-cyclopropyl-7H-pyrrolo[2,3-d]pyrimidin-7-yl)isonicotinonitrile]
11 | 500 to 2000 | < 100 |  | C[C@@H]1CN(c2ncnc3c2c(C(F)(F)F)cn3-c2cc(C#N)ccn2)[C@@H](C)CN1C(=O)c1ccccc1 [Compound 103, 2-(4-((2S,5R)-4-benzoyl-2,5-dimethylpiperazin-1-yl)-5-(trifluoromethyl)-7H-pyrrolo[2,3-d]pyrimidin-7-yl)isonicotinonitrile]
12 |  | 100 to 500 |  | Cc1cn(-c2cc(C#N)ccn2)c2ncnc(N3C[C@@H](C)N(C(=O)c4ccccc4)C[C@@H]3C)c12 [Compound 104, 2-(4-((2S,5R)-4-benzoyl-2,5-dimethylpiperazin-1-yl)-5-methyl-7H-pyrrolo[2,3-d]pyrimidin-7-yl)isonicotinonitrile]
13 | 100 to 500 | 100 to 500 | < 100 | C[C@@H]1CN(c2ncnc3c2c(N2CCC2)cn3-c2cc(C#N)ccn2)[C@@H](C)CN1C(=O)c1ccccc1 [Compound 107, 2-(5-(azetidin-1-yl)-4-((2S,5R)-4-benzoyl-2,5-dimethylpiperazin-1-yl)-7H-pyrrolo[2,3-d]pyrimidin-7-yl)isonicotinonitrile]
14 | 100 to 500 | < 100 | < 100 | C[C@@H]1CN(c2ncnc3c2c(-c2ccccc2F)cn3-c2cc(C#N)ccn2)[C@@H](C)CN1C(=O)c1ccccc1 [Compound 109, 2-(4-((2S,5R)-4-benzoyl-2,5-dimethylpiperazin-1-yl)-5-(2-fluorophenyl)-7H-pyrrolo[2,3-d]pyrimidin-7-yl)isonicotinonitrile]
15 | 100 to 500 | 100 to 500 | < 100 | C[C@@H]1CN(c2ncnc3c2c(C2CCC2)cn3-c2cc(C#N)ccn2)[C@@H](C)CN1C(=O)c1ccccc1 [Compound 110, 2-(4-((2S,5R)-4-benzoyl-2,5-dimethylpiperazin-1-yl)-5-cyclobutyl-7H-pyrrolo[2,3-d]pyrimidin-7-yl)isonicotinonitrile]
16 | 500 to 2000 | 100 to 500 | 100 to 500 | Cc1ccccc1C(=O)N1C[C@H](C)N(c2ncnc3c2c(N2CCC2)cn3-c2cc(C#N)ccn2)C[C@H]1C [Compound 112, 2-(5-(azetidin-1-yl)-4-((2S,5R)-2,5-dimethyl-4-(2-methylbenzoyl)piperazin-1-yl)-7H-pyrrolo[2,3-d]pyrimidin-7-yl)isonicotinonitrile]
17 |  | < 100 |  | C[C@@H]1CN(c2ncnc3c2c(C(F)(F)F)cn3-c2cc(C#N)ccn2)CCN1C(=O)c1ccccc1 [Compound 115, (R)-2-(4-(4-benzoyl-3-methylpiperazin-1-yl)-5-(trifluoromethyl)-7H-pyrrolo[2,3-d]pyrimidin-7-yl)isonicotinonitrile]
